# How the values were obtained:
# [1] = test system: synthetic neomycin-sensing riboswitch, 2FA-labeled (RNA, riboswitch, 2-fluoroadenine at 16, 17 and 24) GGCUGCUUGUCCUUUAAUGGUCCAGCC; test: 19F NMR titration; settings: 303 K; saturating ligand; 215-1200 µM RNA, 1-1.5 equivalents ligand
# [2] = test system: synthetic neomycin-sensing riboswitch, 2FA-labeled (RNA, riboswitch, 2-fluoroadenine at 16, 17 and 24) GGCUGCUUGUCCUUUAAUGGUCCAGCC; test: ITC; settings: 200 mM NaCl, 10 mM MgCl2, 20 mM Na-cacodylate, 1 mM spermidine, pH 6.8, 37 °C, one-site model
smiles,measurement,setting,value
NC[C@@H]1O[C@H](O[C@H]2[C@@H](O)[C@H](O[C@@H]3[C@@H](O)[C@H](N)C[C@H](N)[C@H]3O[C@H]3O[C@H](CN)[C@@H](O)[C@H](O)[C@H]3N)O[C@@H]2CO)[C@H](N)[C@@H](O)[C@@H]1O,binding,[1],yes
NC[C@@H]1O[C@H](O[C@H]2[C@@H](O)[C@H](O[C@@H]3[C@@H](O)[C@H](N)C[C@H](N)[C@H]3O[C@H]3O[C@H](CO)[C@@H](O)[C@H](O)[C@H]3N)O[C@@H]2CO)[C@H](N)[C@@H](O)[C@@H]1O,KD,"[2]; 30 µM RNA, 300 µM ligand",5.7 ± 3.8 µM
NC[C@H]1O[C@H](O[C@H]2[C@H](O[C@@H]3O[C@H](CO)[C@@H](O)[C@H]3O)[C@@H](O)[C@H](N)C[C@@H]2N)[C@H](N)[C@@H](O)[C@@H]1O,KD,"[2]; 10 µM RNA, 100 µM ligand",0.356 ± 0.019 µM
